# Results: patent publication US20230255974A1, “USE OF THYROMIMETICS FOR THE TREATMENT OF CANCER” (THE UNIVERSITY OF VERMONT, priority 2020, published 2023)
# Columns and labels:
# [1] = test system: SW1736 cells (SW-EV, SW-TRβ); assay: Migration (wound healing) assay, T3; type: cell-based, human; conditions: SW-TRβ treated with T3 vs SW-EV
# Protocol: Migration Assay. Cell migration was determined by wound healing assay. Cells were plated and allowed to grow to 100% confluency. Two hours prior to scratching, cells were treated with […] Mitomycin C. A scratch was performed with a P1000 pipette tip and debris was washed away with PBS. Migration media was supplemented with 10^−8 M T3. Images were obtained at 0, 24, 48, and 72 hours. Wound closure was measured using ImageJ macro “Wound Healing Tool” (http://dev.mri.cnrs.fr/projects/imagej-macros/wiki/Wound_Healing_Tool). Values were normalized so that the initial scratch was 0% closure.
# [2] = test system: SW1736 cells (SW-EV, SW-TRβ); assay: Apoptosis assay (PARP1 and caspase 3 cleavage, immunoblot); type: cell-based, human
# Text: Immunoblot Analysis. […] Proteins were resolved by polyacrylamide gel electrophoresis on 10% sodium dodecyl sulfate gels EC60752 (Life Technologies) and immobilized onto nitrocellulose membranes (GE Healthcare) by electroblot (Bio-Rad Laboratories). Specific proteins were detected by immunoblotting with the indicated antibodies (Table 4); immunoreactive proteins were detected by enhanced chemiluminescence (Thermo Scientific) on a ChemiDoc XRS+ (Bio-Rad Laboratories).
# Apoptosis Assay. Cells were plated at a density of 50,000 cells/well and treated with vehicle (1 N NaOH) or 10^−8 M T3. After 5 days the cells were lysed for analysis by immunoblot. Poly (ADP-ribose) polymerase 1 (PARP1) and Caspase 3 cleavage were assessed to measure apoptotic signaling.
# Immunoblot Analysis. […] Proteins were resolved by polyacrylamide gel electrophoresis on 10% sodium dodecyl sulfate gels EC60752 (Thermo Fisher Scientific) and immobilized onto nitrocellulose membranes (GE Healthcare, Chicago, Ill., USA) by electroblot (Bio-Rad Laboratories, Hercules, Calif., USA). Specific proteins were detected by immunoblotting with the indicated antibodies (Table 4); immunoreactive proteins were detected by enhanced chemiluminescence (Thermo Scientific) on a ChemiDoc XRS+ (Bio-Rad Laboratories).
compound,measurement,setting,value
"N[C@@H](Cc1cc(I)c(Oc2ccc(O)c(I)c2)c(I)c1)C(=O)O [T3, (2S)-2-amino-3-[4-(4-hydroxy-3-iodophenoxy)-3,5-diiodophenyl]propanoic acid]",scratch closure (AUC),[1],significantly reduced scratch closure
same,caspase 3 and PARP1 cleavage,"[2]; SW-EV and SW-TRβ, T3, 5 days",induced cleavage of these apoptotic effectors only in SW-TRβ
same,apoptosis (cleaved PARP and caspase),"[2]; SW-TRβ, five days",induces apoptosis
